From patent US10130695B2, “Compositions containing combinations of bioactive molecules derived from microbiota for treatment of disease” (priority 2013, dated 2018) come the findings set out here.

Test [1] deals with Splenic naïve (CD44loCD62Lhi) CD4+ T cells. The test is described as follows: Treg induction in vitro (FACS). In kind it is cell-based. Particulars: anti-CD3/anti-CD28 mAb-coated beads, TGF-β; compared to no treatment control; FIG. 1. The text has this:
First, to gain mechanistic insight into the induction of Tregs by bacteria belonging to Clostridium Clusters IV, XIVa, and XVIII, germ-free mice were colonized with a cocktail of bacteria comprising bacterial strains belonging to Clostridium Cluster IV, bacterial strains belonging to Clostridium Cluster XIVa, and bacterial strains belonging to Clostridium Cluster XVIII (“Clostridium-colonized mice”). To identify metabolites potentially involved in Treg induction, the hundreds of metabolites present in the luminal composition of Clostridium-colonized, ex-germ free mice were painstakingly investigated with NMR-based metabolome analysis coupled with principal component analysis (PCA). […] The influence of acetate, propionate, and butyrate on Treg induction in vitro was measured as follows: Splenic naïve (CD44^loCD62L^hi) CD4+ T cells were stimulated with anti-CD3 and anti-CD28 mAb-coated beads and cultured in the presence of T-cell antigen receptor signaling and TGF-β with or without each of these short-chain fatty acids listed above.

The test system of test [2] is OT-I CD8 T cells with colonic lamina propria CD4+CD25+ Treg cells. In words: Cognate antigen-driven suppression assay. In kind it is cell-based, mice. Particulars: experiment repeated adding flagellin; after 3 days. The procedure: Fourth, investigation was carried to determine whether bacteria belonging to Clostridium Clusters IV, XIVa, and XVIII provide bacterial antigens to T cells. To do this, assessment was carried out of the antigen specificity of Tregs accumulated in mice colonized by a mixture of 17strains belonging to Clostridium Clusters, […] (“17-mix”) using a cognate antigen-driven suppression assay. […] CD 11c+cells were isolated from spleens of SPF C57BL/6 mice, pulsed with 0.5 μM SIINFEKL (SEQ ID NO: 2) OT-I peptide alone or in combination with either of 5μM ISQAVHAAHAEINEAGR (SEQ ID NO: 3) OT-II peptide or autoclaved caecal contents from +17-mix mice, and plated at 5 x 10^4well. CD8OT-I T cells (Teff) were added to the CD11c+cell-seeded plates at 5 x 10^4/well. Then, CD4+CD25+T cells sorted from colonic LP of +17-mix mice (LP Treg) or from spleens of SPF OT-II mice (OT-II Treg) were added to the culture at the indicated ratio of Treg to Teff cells. After 3 days, all cells were harvested, stained with anti-CD4 and anti-CD8antibodies, and analysed by flow cytometry to enumerate the number of CD8 OT-I T cells. Depicted data in FIG. 4b represent average of duplicates. […]

Turning to `CC(=O)O` [acetate], the “differentiation of Treg cells” value in test [1] is “enhanced differentiation of Treg cells”.

Turning to `CCC(=O)O` [propionate], the “differentiation of Treg cells” value in test [1] is listed as “enhanced differentiation of Treg cells”.

B1: flagellin: flagellin (SEQ ID NO 1), an antigen highly abundant in bacteria belonging to Clostridium Clusters IV, XIVa, and XVIII (protein)
chain: MVVQHNLQAMNSNRMLGITQKTASKSTEKLSSGYAINRAADNAAGLAISEKMRKQIRGLTQASTNAEDGISSVQTAEGALTEVHDMLQRMNELAIQAANGTNSEDDRSYIQDEIDQLTQEIDRVAETTKFNETYLLKGDTKNVDAMDYTYSYKAVTTNTVARASVLAAENTATGMSVSISFAANSGKVTAADSNNLAKAIRDQGFTITTSTQNGKVVYGLELNGSDAKANYTVSTVSMEAGTFKILNSNKQVVASVTISTTASFKKVSGMSQIVTAYSVSAAYATGDVYSLYDADGNAISANKLDKYFTAGGATEAGGIATTLSANSGVPKVYDVLGKEVSAVSIASTLVTAVKDKTAALKMNFHVGADGTDNNKIKINIEAMTAKSLGVNGLKVSGSSGTNATNAIEIIAGAIKKVSTQRSALGAVQNRLEHTINNLDNIVENTTAAESGIRDTDMATEMVKYSNANILSQAGQSMLAQSNQSNQGVLQLLQ
On to B1, for which, in test [2], the “colonic Lamina Propria Treg cells specific for the antigen” value is listed as “colonic Lamina Propria Treg cells specific for flagellin were isolated”.
